Data taken from article PMC7845594, “Novel Immune Modulators Enhance Caenorhabditis elegans Resistance to Multiple Pathogens” (mSphere, 2021).

Test system: C. elegans transcriptome
Assay: Transcriptome profiling (Affymetrix microarrays), differentially expressed genes
Format: in vivo, Caenorhabditis elegans
Protocol: To gain additional insight into the effect of LK molecules on C. elegans, young-adult, wild-type worms were treated with each drug at 100 µM for 8 h in the absence of pathogen. RNA was collected, and transcriptome profiling was performed.
Data were determined using Affymetrix microarrays, as described in Materials and Methods. Download Table S3, XLSX file, 0.07 MB.
Transcriptome profiling was performed on ∼6,000 wild-type, young adult worms incubated with either LK molecules or DMSO for 8 h. RNA isolation was performed using TRIzol extraction, followed by cleanup using RNeasy columns according to the manufacturer’s protocol. Each condition was analyzed in triplicate. Microarray data have been deposited in the GEO database, accession number GSE137516. […] Clustering and generation of the heat map was performed using Cluster 3.0 ([98]) and Treeview ([99]), respectively. Fold change of genes were normalized to average fold change of that gene over all clustered conditions. Genes and conditions were clustered using Euclidean distance and average linkages. […] Microarray data for non-LK molecules were collected from GEO omnibus. WormEXP was used as a secondary method for confirming statistical significance of potential pathways stimulated by each of the LK molecules ([100]). Gene ontologies were generated using DAVID ([101], [102]).

[1] = Downregulated genes, Affy_ID 171867_x_at

CNC(=O)Oc1c(Br)cc2sc(=O)oc2c1Br [LK34]
Fold Change (Affy_ID 171867_x_at, listed under genes C09B9.6, F36H12.7, K07F5.1, R05F9.13, R13H9.2, R13H9.4, T13F2.10, T13F2.11, Y59E9AR.1, Y59E9AR.7, ZK354.1, downregulated genes): 0.2366
Fold Change, gene ZK354.1 [1]: 0.2366
Fold Change, gene ZK354.10 [1]: 0.2366
Fold Change, gene ZK354.11 [1]: 0.2366
Fold Change, gene ZK354.4 [1]: 0.2366
Fold Change, gene ZK354.5 [1]: 0.2366
Fold Change, gene ZK525.1 (Downregulated genes, Affy_ID 172214_x_at): 0.3205
Fold Change, gene ZK484.8 (Downregulated genes, Affy_ID 172381_x_at): 0.3874
Fold Change, gene ZK546.3 (Downregulated genes, Affy_ID 172798_x_at): 0.1968
Fold Change, gene ZK131.7 (Downregulated genes, Affy_ID 172871_x_at): 0.3375
Fold Change, gene ZK546.6 (Downregulated genes, Affy_ID 172900_x_at): 0.1968
Fold Change, gene ZK669.2 (Downregulated genes, Affy_ID 179491_at): 0.229
Fold Change, gene ZK550.2 (Downregulated genes, Affy_ID 179513_at): 0.3085
Fold Change, gene ZK484.5 (Downregulated genes, Affy_ID 182193_at): 0.3399
Fold Change, gene ZK593.1 (Downregulated genes, Affy_ID 189095_at): 0.4248
Fold Change, gene ZK666.7 (Downregulated genes, Affy_ID 194066_s_at): 0.02705
Fold Change (Gene C05C12.3, Affy_ID 183355_s_at, downregulated genes): 0.4055
Fold Change (Gene M163.1, Affy_ID 177298_at, downregulated genes): 0.426
Fold Change (Gene R01E6.3, Affy_ID 189628_at, downregulated genes): 0.3684
Fold Change (Gene R03E9.1, Affy_ID 193723_s_at, downregulated genes): 0.2017
Fold Change (Gene R03E9.3, Affy_ID 174840_s_at, downregulated genes): 0.4768
Fold Change (Gene R05F9.3, Affy_ID 172725_x_at, downregulated genes): 0.4019
Fold Change (Gene R05F9.8, Affy_ID 172724_x_at, downregulated genes): 0.2519
Fold Change (Gene R05G6.10, Affy_ID 192058_at, downregulated genes): 0.3616
Fold Change (Gene R12C12.1, Affy_ID 190616_at, downregulated genes): 0.2442
Fold Change (Gene R12E2.9, Affy_ID 180698_s_at, downregulated genes): 0.3881
Fold Change (Gene R52.3, Affy_ID 177369_at, downregulated genes): 0.4244
Fold Change (Gene T01C3.4, Affy_ID 188106_at, downregulated genes): 0.02189
Fold Change (Gene T02B11.3, Affy_ID 174051_s_at, downregulated genes): 0.4182
Fold Change (upregulated gene T13H2.4, Affy_ID 183082_s_at): 2.522
Fold Change (upregulated gene T14F9.3, Affy_ID 173287_s_at): 3.284
Fold Change (upregulated gene T14G8.1, Affy_ID 193596_s_at): 3.752
Fold Change (upregulated gene T15B7.3, Affy_ID 188456_at): 3.308
Fold Change (upregulated gene T19B10.2, Affy_ID 181715_s_at): 5.383
Fold Change (upregulated gene T20F7.6, Affy_ID 173076_s_at): 3.038
Fold Change (upregulated gene T21C12.2, Affy_ID 193009_at): 2.072
Fold Change (upregulated gene T21E3.3, Affy_ID 173760_s_at): 2.777
Fold Change (upregulated gene T22B7.3, Affy_ID 181552_at): 4.555
Fold Change (upregulated gene T22B7.7, Affy_ID 173688_s_at): 13.7199
Fold Change (upregulated gene T22F3.3, Affy_ID 176676_s_at): 2.752
Fold Change (upregulated gene T24B8.3, Affy_ID 175022_s_at): 3.173
Fold Change (upregulated gene T24B8.5, Affy_ID 178297_at): 134.612
Fold Change (upregulated gene T24C4.4, Affy_ID 182815_at): 2.661
Fold Change (upregulated gene T25G12.5, Affy_ID 174581_s_at): 2.002
Fold Change (upregulated gene T26C5.1, Affy_ID 190852_at): 2.137
Fold Change (upregulated gene T27A3.2, Affy_ID 192961_at): 2.203
Fold Change (upregulated gene T27E4.3, Affy_ID 172901_x_at): 16.0293
Fold Change (upregulated gene T28D9.3, Affy_ID 187493_at): 2.783
Fold Change (upregulated gene VZK822L.1, Affy_ID 187997_s_at): 2.806
Fold Change (upregulated gene W01F3.2, Affy_ID 173274_s_at): 7.505
Fold Change (upregulated gene W02A2.7, Affy_ID 193943_at): 2.753
Fold Change (upregulated gene W03C9.7, Affy_ID 194039_s_at): 2.373
Fold Change (upregulated gene W03F8.10, Affy_ID 174843_at): 5.242
Fold Change (upregulated gene W03F9.4, Affy_ID 189587_s_at): 16.8516
Fold Change (upregulated gene W04A8.4, Affy_ID 178654_s_at): 22.7121
Fold Change (upregulated gene W04B5.1, Affy_ID 180966_s_at): 3.157
Fold Change (upregulated gene W04B5.3, Affy_ID 173153_s_at): 2.678
Fold Change (upregulated gene W05G11.6, Affy_ID 192581_s_at): 4.517
Fold Change (upregulated gene W05H9.1, Affy_ID 179806_at): 2.462
Fold Change (upregulated gene W06D4.1, Affy_ID 172046_x_at): 3.704
Fold Change (upregulated gene W06D12.3, Affy_ID 192357_at): 7.111
Fold Change (upregulated gene W06H8.1, Affy_ID 185746_s_at): 2.211
Fold Change (upregulated gene W09C3.1, Affy_ID 192187_s_at): 2.464
Fold Change (upregulated gene W09D10.2, Affy_ID 188190_at): 2.479
Fold Change (upregulated gene Y17G7B.5, Affy_ID 191321_s_at): 2.063
Fold Change (upregulated gene Y19D10A.9, Affy_ID 180592_s_at): 3.023
Fold Change (upregulated gene Y22F5A.4, Affy_ID 182989_at): 2.493
Fold Change (upregulated gene Y22F5A.5, Affy_ID 183028_s_at): 6.999
Fold Change (upregulated gene Y25C1A.13, Affy_ID 192131_s_at): 2.041
Fold Change (upregulated gene Y37A1B.5, Affy_ID 182849_at): 3.394
Fold Change (upregulated gene Y37D8A.3, Affy_ID 182387_at): 3.237
Fold Change (upregulated gene Y37D8A.6, Affy_ID 181665_at): 3.132
Fold Change (upregulated gene Y37E3.16, Affy_ID 173045_at): 3.373
Fold Change (upregulated gene Y38E10A.14, Affy_ID 175449_s_at): 19.1307
Fold Change (upregulated gene Y38F1A.9, Affy_ID 183759_at): 3.202
Fold Change (upregulated gene Y39G10AR.10, Affy_ID 176486_at): 3.752
Fold Change (upregulated gene Y40B10A.6, Affy_ID 176851_at): 72.4303
Fold Change (upregulated gene Y41C4A.16, Affy_ID 194230_x_at): 2.854
Fold Change (upregulated gene Y41D4B.10, Affy_ID 176055_at): 12.5937
Fold Change (upregulated gene Y41D4B.16, Affy_ID 176044_at): 3.687
Fold Change (upregulated gene Y42G9A.3, Affy_ID 184843_at): 2.448
Fold Change (upregulated gene Y45F3A.3, Affy_ID 190484_at): 2.142
Fold Change (upregulated gene Y45F10C.4, Affy_ID 186062_at): 3.365
Fold Change (upregulated gene Y45G12C.2, Affy_ID 187084_at): 44.4121
Fold Change (upregulated gene Y47D3B.10, Affy_ID 175803_at): 16.792
Fold Change (upregulated gene Y47H9C.5, Affy_ID 191065_s_at): 3.655
Fold Change (upregulated gene Y51H7C.1, Affy_ID 186349_at): 10.7753
Fold Change (upregulated gene Y53C10A.5, Affy_ID 185387_s_at): 2.3
Fold Change (upregulated gene Y53F4B.33, Affy_ID 191337_at): 3.746
Fold Change (upregulated gene Y53G8B.2, Affy_ID 184714_s_at): 12.3167
Fold Change (upregulated gene Y55B1AR.1, Affy_ID 187047_at): 6.102
Fold Change (upregulated gene Y57A10A.23, Affy_ID 187073_at): 4.099
Fold Change (upregulated gene Y57G7A.1, Affy_ID 184451_at): 2.494
Fold Change (upregulated gene Y66D12A.24, Affy_ID 175124_at): 2.157
Fold Change (upregulated gene Y73F4A.1, Affy_ID 183741_s_at): 2.361
Fold Change (upregulated gene Y77E11A.2, Affy_ID 187013_at): 2.74
Fold Change (upregulated gene Y105C5B.15, Affy_ID 186799_at): 3.153
Fold Change (upregulated gene Y105C5B.9, Affy_ID 185162_at): 4.733
Fold Change (upregulated gene Y106G6D.6, Affy_ID 185498_at): 6.605
Fold Change (upregulated gene Y110A2AL.4, Affy_ID 175367_s_at): 14.9078
Fold Change (upregulated gene ZC64.2, Affy_ID 177670_at): 2.001
Fold Change (upregulated gene ZC155.1, Affy_ID 173222_s_at): 2.272
Fold Change (upregulated gene ZC455.4, Affy_ID 191057_s_at): 5.011
Fold Change (upregulated gene ZK6.10, Affy_ID 175170_s_at): 5.465
Fold Change (upregulated gene ZK455.1, Affy_ID 193891_at): 2.692
Fold Change (upregulated gene ZK512.7, Affy_ID 186714_s_at): 3.907
Fold Change (upregulated gene ZK550.6, Affy_ID 186811_s_at): 2.631
Fold Change (upregulated gene ZK637.13, Affy_ID 173475_s_at): 3.509
Fold Change (upregulated gene ZK688.6, Affy_ID 176040_s_at): 2.439
Fold Change (upregulated gene ZK770.3, Affy_ID 180366_s_at): 3.016
Fold Change (upregulated gene ZK829.9, Affy_ID 189819_s_at): 5.03
Fold Change (upregulated gene ZK899.2, Affy_ID 178376_s_at): 4.028
Fold Change (upregulated gene ZK1058.6, Affy_ID 188607_at): 45.3463
Fold Change (upregulated gene ZK1251.2, Affy_ID 188538_at): 5.974
Fold Change (upregulated gene ZK1290.8, Affy_ID 184676_s_at): 4.32
